Consider 35 substances from the OligoGym collection.

Oligonucleotides are written 5' to 3', each unit as a sugar letter and its base; * is a phosphorothioate linkage, no mark a phosphodiester; rarer units and linkages stand in square brackets, end groups in braces. Plain capitals give the bases only. d = 2'-deoxy (DNA); r = 2'-OH (RNA)
Note: test concentration or dose not given here.

The series deals with UBE2B. Description: reporter assay of Huesken 2005. Conditions: siRNA. A general note: A reporter such as luciferase makes a cellular process visible.
“sense rCrArUrArUrGrArUrGrUrArUrCrUrUrCrUrArUdTdT / antisense rArUrArGrArArGrArUrArCrArUrCrArUrArUrGdTdT” showed a normalised inhibition (eCFP-eYFP dual reporter) of 83.9%.
The value for “sense rCrCrArArArArUrGrUrUrUrCrArUrCrCrArArAdTdT / antisense rUrUrUrGrGrArUrGrArArArCrArUrUrUrUrGrGdAdT” was 84.6%; that for “sense rCrCrArCrCrArArCrUrGrUrUrArGrGrUrUrUrUdTdT / antisense rArArArArCrCrUrArArCrArGrUrUrGrGrUrGrGdTdT” was 69.7%.
As for “sense rCrGrArGrArArUrArUrGrArGrArArArArGrArGdTdT / antisense rCrUrCrUrUrUrUrCrUrCrArUrArUrUrCrUrCrGdTdT”, the figure is 73.5%.
The value for “sense rCrGrGrCrCrArUrUrGrUrUrGrArArCrArArArGdTdT / antisense rCrUrUrUrGrUrUrCrArArCrArArUrGrGrCrCrGdAdA” was 76.5%; that for “sense rCrGrGrGrArUrUrUrCrArArGrCrGrGrUrUrArCdTdT / antisense rGrUrArArCrCrGrCrUrUrGrArArArUrCrCrCrGdCdA” was 85.1%; that for “sense rCrUrGrArArGrArArUrArUrCrCrArArArUrArAdTdT / antisense rUrUrArUrUrUrGrGrArUrArUrUrCrUrUrCrArGdAdA” was 80.1%.
“sense rCrUrUrCrArGrArArUrCrGrArUrGrGrArGrUrCdTdT / antisense rGrArCrUrCrCrArUrCrGrArUrUrCrUrGrArArGdGdA” displayed a normalised inhibition (eCFP-eYFP dual reporter) of 72.2%.
As for “sense rGrArArCrCrGrArArUrCrCrUrArArCrArGrUrCdTdT / antisense rGrArCrUrGrUrUrArGrGrArUrUrCrGrGrUrUrCdAdT”, the figure is 72.7%; as for “sense rGrArArGrArArUrArUrCrCrArArArUrArArArCdTdT / antisense rGrUrUrUrArUrUrUrGrGrArUrArUrUrCrUrUrCdAdG”, 77.7%; as for “sense rGrArArGrGrGrArCrArCrCrUrUrUrUrGrArArGdTdT / antisense rCrUrUrCrArArArArGrGrUrGrUrCrCrCrUrUrCdTdG”, 79.8%.
As for “sense rGrArArUrArUrGrArGrArArArArGrArGrUrUrUdTdT / antisense rArArArCrUrCrUrUrUrUrCrUrCrArUrArUrUrCdTdC”, the figure is 78.7%; as for “sense rGrArArUrCrGrArUrGrGrArGrUrCrCrArArCrAdTdT / antisense rUrGrUrUrGrGrArCrUrCrCrArUrCrGrArUrUrCdTdG”, 84.1%.
The substance “sense rGrArGrArArArArGrArGrUrUrUrCrGrGrCrCrAdTdT / antisense rUrGrGrCrCrGrArArArCrUrCrUrUrUrUrCrUrCdAdT” registered a normalised inhibition (eCFP-eYFP dual reporter) of 82.7%.
In turn, “sense rGrArGrArArUrArUrGrArGrArArArArGrArGrUdTdT / antisense rArCrUrCrUrUrUrUrCrUrCrArUrArUrUrCrUrCdGdT” yielded a normalised inhibition (eCFP-eYFP dual reporter) of 83.6%.
“sense rGrArUrGrUrArUrCrUrUrCrUrArUrCrUrUrArAdTdT / antisense rUrUrArArGrArUrArGrArArGrArUrArCrArUrCdAdT”: the normalised inhibition (eCFP-eYFP dual reporter) was 84.7%.
“sense rGrCrArCrArGrCrUrUrUrArUrCrArGrGrArArAdTdT / antisense rUrUrUrCrCrUrGrArUrArArArGrCrUrGrUrGrCdTdG”: the normalised inhibition (eCFP-eYFP dual reporter) was determined as 83.8%.
As for “sense rGrCrArCrCrArUrCrUrGrArArArArCrArArCrAdTdT / antisense rUrGrUrUrGrUrUrUrUrCrArGrArUrGrGrUrGrCdGdC”, the figure is 74.2%; as for “sense rGrCrGrCrArCrCrArUrCrUrGrArArArArCrArAdTdT / antisense rUrUrGrUrUrUrUrCrArGrArUrGrGrUrGrCrGrCdCdA”, 72.8%; as for “sense rGrCrUrGrGrArUrGrArArCrCrGrArArUrCrCrUdTdT / antisense rArGrGrArUrUrCrGrGrUrUrCrArUrCrCrArGrCdAdG”, 81.5%.
For the substance “sense rGrCrUrUrUrArUrCrArGrGrArArArArCrArArAdTdT / antisense rUrUrUrGrUrUrUrUrCrCrUrGrArUrArArArGrCdTdG”, the normalised inhibition (eCFP-eYFP dual reporter) is 80.4%.
As for “sense rGrUrArCrUrUrUrUrArArArCrUrArGrUrArArUdTdT / antisense rArUrUrArCrUrArGrUrUrUrArArArArGrUrArCdCdA”, the normalised inhibition (eCFP-eYFP dual reporter) was found to be 86.2%.
For “sense rGrUrArUrGrCrUrGrArUrGrGrUrArGrCrArUrAdTdT / antisense rUrArUrGrCrUrArCrCrArUrCrArGrCrArUrArCdAdC”, the normalised inhibition (eCFP-eYFP dual reporter) was found to be 75.7%.
“sense rGrUrGrGrArArUrGrCrArGrUrUrArUrArUrUrUdTdT / antisense rArArArUrArUrArArCrUrGrCrArUrUrCrCrArCdTdG” displayed a normalised inhibition (eCFP-eYFP dual reporter) of 84.6%.
The value for “sense rGrUrUrUrCrGrGrCrCrArUrUrGrUrUrGrArArCdTdT / antisense rGrUrUrCrArArCrArArUrGrGrCrCrGrArArArCdTdC” was 61.6%; that for “sense rUrArGrArUrArUrCrCrUrUrCrArGrArArUrCrGdTdT / antisense rCrGrArUrUrCrUrGrArArGrGrArUrArUrCrUrAdAdA” was 47.9%.
The value for “sense rUrArGrUrArArUrArGrArArUrUrUrUrCrUrGrAdTdT / antisense rUrCrArGrArArArArUrUrCrUrArUrUrArCrUrAdGdT” was 72.3%; that for “sense rUrArUrCrCrArArArArUrGrUrUrUrCrArUrCrCdTdT / antisense rGrGrArUrGrArArArCrArUrUrUrUrGrGrArUrAdAdA” was 48.2%; that for “sense rUrArUrCrUrUrArArCrArUrCrArArUrUrCrArGdTdT / antisense rCrUrGrArArUrUrGrArUrGrUrUrArArGrArUrAdGdA” was 50.5%.
Regarding “sense rUrArUrGrUrUrUrArGrArUrArUrCrCrUrUrCrAdTdT / antisense rUrGrArArGrGrArUrArUrCrUrArArArCrArUrAdTdG”, the normalised inhibition (eCFP-eYFP dual reporter) worked out at 63.5%.
In turn, “sense rUrCrArGrUrCrUrCrUrGrCrUrGrGrArUrGrArAdTdT / antisense rUrUrCrArUrCrCrArGrCrArGrArGrArCrUrGrAdAdT” gave a normalised inhibition (eCFP-eYFP dual reporter) of 62.4%.
The value for “sense rUrCrCrArArArUrArArArCrCrArCrCrArArCrUdTdT / antisense rArGrUrUrGrGrUrGrGrUrUrUrArUrUrUrGrGrAdTdA” was 61.8%; that for “sense rUrCrCrUrUrCrArGrArArUrCrGrArUrGrGrArGdTdT / antisense rCrUrCrCrArUrCrGrArUrUrCrUrGrArArGrGrAdTdA” was 50%.
The value for “sense rUrCrUrGrArArArArCrArArCrArUrCrArUrGrCdTdT / antisense rGrCrArUrGrArUrGrUrUrGrUrUrUrUrCrArGrAdTdG” was 48.3%; that for “sense rUrGrCrArGrUrUrArUrArUrUrUrGrGrArCrCrAdTdT / antisense rUrGrGrUrCrCrArArArUrArUrArArCrUrGrCrAdTdT” was 81.7%.
